Test results taken from ChEMBL document CHEMBL1909046, “DrugMatrix in vitro pharmacology data”.

What was measured:
[1] = target: T1, Neuropeptide Y receptor type 2 (Homo sapiens, UniProt P49146); assay type: cell membranes, Membrane; settings: kan-ts; also: in other assays of this panel Not Active means under 50% inhibition at 10 µM
T1 sequence (P49146 whole entry): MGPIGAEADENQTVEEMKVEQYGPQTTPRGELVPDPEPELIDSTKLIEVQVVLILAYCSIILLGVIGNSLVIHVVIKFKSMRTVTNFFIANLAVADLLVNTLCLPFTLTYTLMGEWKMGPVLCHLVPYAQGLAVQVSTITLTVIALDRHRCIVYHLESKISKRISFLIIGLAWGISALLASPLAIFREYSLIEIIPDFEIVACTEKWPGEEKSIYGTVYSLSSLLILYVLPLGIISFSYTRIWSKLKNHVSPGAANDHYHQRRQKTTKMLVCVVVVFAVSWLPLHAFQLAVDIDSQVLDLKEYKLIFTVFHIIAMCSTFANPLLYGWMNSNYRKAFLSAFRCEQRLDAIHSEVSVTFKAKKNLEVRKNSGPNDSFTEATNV

[2] = DRUGMATRIX: GABAA, Flunitrazepam, Central radioligand binding (ligand: [3H] Flunitrazepam); assay type: cell membranes, Rattus norvegicus, Wistar, Brain, Membrane; settings: Not Active = under 50% inhibition at 10 µM
[3] = target: T2, Alpha-2C adrenergic receptor (Homo sapiens, UniProt P18825); test: DRUGMATRIX: Adrenergic Alpha-2C radioligand binding (ligand: [3H] MK-912); assay type: cell membranes, Sf9, Membrane
T2 sequence (P18825 whole entry): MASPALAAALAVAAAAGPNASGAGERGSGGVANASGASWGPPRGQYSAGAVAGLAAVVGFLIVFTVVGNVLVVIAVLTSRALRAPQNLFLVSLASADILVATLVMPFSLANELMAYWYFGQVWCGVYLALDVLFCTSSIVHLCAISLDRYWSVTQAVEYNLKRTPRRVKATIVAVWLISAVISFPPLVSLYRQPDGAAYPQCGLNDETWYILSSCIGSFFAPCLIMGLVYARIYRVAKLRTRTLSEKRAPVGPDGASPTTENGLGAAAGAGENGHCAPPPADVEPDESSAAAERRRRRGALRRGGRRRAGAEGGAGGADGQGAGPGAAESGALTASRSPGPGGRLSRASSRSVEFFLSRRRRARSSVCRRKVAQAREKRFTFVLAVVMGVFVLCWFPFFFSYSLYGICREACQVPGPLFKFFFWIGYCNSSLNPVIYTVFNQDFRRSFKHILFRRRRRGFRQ

[4] = target: C-C chemokine receptor type 5 (Homo sapiens, UniProt P51681); assay type: cell membranes, HEK293, Membrane; settings: hek293; also: in other assays of this panel Not Active means under 50% inhibition at 10 µM
[5] = target: T3, Alpha-1B adrenergic receptor (Rattus norvegicus, UniProt P15823); test: DRUGMATRIX: Alpha-1B adrenergic receptor radioligand binding (ligand: prazosin); assay type: cell membranes, Wistar, Liver, Membrane; settings: Not Active = under 50% inhibition at 10 µM
T3 sequence (P15823 whole entry): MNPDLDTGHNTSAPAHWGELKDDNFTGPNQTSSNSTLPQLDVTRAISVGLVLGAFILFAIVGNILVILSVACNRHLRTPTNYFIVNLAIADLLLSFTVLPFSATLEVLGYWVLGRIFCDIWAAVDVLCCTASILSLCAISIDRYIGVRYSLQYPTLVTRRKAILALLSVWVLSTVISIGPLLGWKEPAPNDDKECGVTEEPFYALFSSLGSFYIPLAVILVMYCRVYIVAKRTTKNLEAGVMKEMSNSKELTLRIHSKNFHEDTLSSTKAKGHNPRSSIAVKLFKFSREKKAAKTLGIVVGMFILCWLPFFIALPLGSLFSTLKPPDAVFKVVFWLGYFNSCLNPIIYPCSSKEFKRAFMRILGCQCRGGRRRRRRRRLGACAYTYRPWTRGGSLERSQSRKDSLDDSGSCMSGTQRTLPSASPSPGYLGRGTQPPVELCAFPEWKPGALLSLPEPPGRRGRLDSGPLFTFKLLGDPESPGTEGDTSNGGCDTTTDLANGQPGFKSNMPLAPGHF

[6] = target: Mitogen-activated protein kinase 14 (Homo sapiens, UniProt Q16539); design: species or system Escherichia coli;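 also: inhibition of p38alpha enzyme activity in a biochemical kinase assay, with myelin basic protein serving as substrate; in other assays of this panel Not Active means under 50% inhibition at 10 µM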
Mitogen-activated protein kinase 14, sequence (Q16539 whole entry): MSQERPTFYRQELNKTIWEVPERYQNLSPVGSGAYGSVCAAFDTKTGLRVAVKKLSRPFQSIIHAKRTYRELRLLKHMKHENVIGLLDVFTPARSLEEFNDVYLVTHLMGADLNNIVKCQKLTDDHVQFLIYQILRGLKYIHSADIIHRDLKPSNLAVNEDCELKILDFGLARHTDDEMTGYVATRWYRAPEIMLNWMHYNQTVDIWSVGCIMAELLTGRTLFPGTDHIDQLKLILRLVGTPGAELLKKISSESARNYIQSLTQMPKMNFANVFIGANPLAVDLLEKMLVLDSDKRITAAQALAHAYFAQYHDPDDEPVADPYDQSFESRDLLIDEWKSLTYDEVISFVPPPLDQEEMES

C-C chemokine receptor type 5, sequence (P51681 whole entry): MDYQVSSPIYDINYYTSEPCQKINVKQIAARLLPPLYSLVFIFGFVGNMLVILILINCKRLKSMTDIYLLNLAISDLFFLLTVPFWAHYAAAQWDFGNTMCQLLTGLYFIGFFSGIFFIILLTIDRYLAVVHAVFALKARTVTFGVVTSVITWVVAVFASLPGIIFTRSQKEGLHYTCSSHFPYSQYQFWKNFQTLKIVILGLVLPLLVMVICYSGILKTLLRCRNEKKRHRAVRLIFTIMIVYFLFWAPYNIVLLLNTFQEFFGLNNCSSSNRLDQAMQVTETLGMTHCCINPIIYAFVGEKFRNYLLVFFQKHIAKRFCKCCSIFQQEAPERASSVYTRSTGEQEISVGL

CO[C@H]1O[C@@H]2O[C@@]3(C)CC[C@H]4[C@H](C)CC[C@@H]([C@H]1C)[C@@]24OO3
IC50 [1]: Not Active | IC50 [2]: Not Active | Ki [2]: Not Active | IC50 ([3]; sf9): Not Active | IC50 [4]: Not Active | IC50 [5]: Not Active | IC50 [6]: Not Active

O=c1[nH]c2ccccc2c2ccccc12
IC50 [1]: Not Active | IC50 [2]: Not Active | Ki [2]: Not Active | IC50 ([3]; sf9): Not Active | IC50 [4]: Not Active | IC50 [5]: Not Active | IC50 [6]: Not Active

COc1ccc(C[C@H](N)C(=O)N[C@H]2[C@@H](O)[C@H](n3cnc4c(N(C)C)ncnc43)O[C@@H]2CO)cc1 [PUROMYCIN]
IC50 [1]: Not Active | IC50 [2]: Not Active | Ki [2]: Not Active | IC50 ([3]; sf9): Not Active | IC50 [4]: Not Active | IC50 [5]: Not Active | IC50 [6]: Not Active

CHROMIC CHLORIDE
IC50 [1]: Not Active | Ki [1]: Not Active | IC50 [2]: Not Active | Ki [2]: Not Active | IC50 ([3]; sf9): Not Active | Ki ([3]; sf9): Not Active | IC50 [4]: Not Active | Ki [4]: Not Active | IC50 [5]: Not Active | Ki [5]: Not Active | IC50 [6]: Not Active | Ki [6]: Not Active

C[C@@H]1[C@H](O)[C@@H](C)/C=C/C=C/C=C/C=C/C=C/C=C/C=C/[C@H](O[C@@H]2O[C@H](C)[C@@H](O)[C@H](N)[C@@H]2O)C[C@@H]2O[C@](O)(C[C@@H](O)C[C@@H](O)[C@H](O)CC[C@@H](O)C[C@@H](O)CC(=O)O[C@H]1C)C[C@H](O)[C@H]2C(=O)O [AMPHOTERICIN B]
IC50 [1]: Not Active | IC50 [2]: Not Active | Ki [2]: Not Active | IC50 ([3]; sf9): Not Active | IC50 [4]: Not Active | IC50 [5]: Not Active | IC50 [6]: Not Active

Cc1c(N)nc([C@H](CC(N)=O)NC[C@H](N)C(N)=O)nc1C(=O)N[C@H](C(=O)N[C@H](C)[C@@H](O)[C@H](C)C(=O)N[C@H](C(=O)NCCc1nc(-c2nc(C(=O)NCCC[S+](C)C)cs2)cs1)[C@@H](C)O)[C@@H](O[C@@H]1O[C@@H](CO)[C@@H](O)[C@H](O)[C@@H]1O[C@H]1O[C@H](CO)[C@@H](O)[C@H](OC(N)=O)[C@@H]1O)c1c[nH]cn1.[Br-] [BLEOMYCIN A2]
IC50 [1]: Not Active | IC50 [2]: Not Active | Ki [2]: Not Active | IC50 ([3]; sf9): Not Active | IC50 [4]: Not Active | IC50 [5]: Not Active | IC50 [6]: Not Active

O=C(O)CNCP(=O)(O)O [GLYPHOSATE]
IC50 [1]: Not Active | IC50 [2]: Not Active | Ki [2]: Not Active | IC50 ([3]; sf9): Not Active | IC50 [4]: Not Active | IC50 [5]: Not Active | IC50 [6]: Not Active

Nc1nc(F)nc2c1ncn2[C@@H]1O[C@H](CO)[C@@H](O)[C@@H]1O [FLUDARABINE]
IC50 [1]: Not Active | IC50 [2]: Not Active | Ki [2]: Not Active | IC50 ([3]; sf9): Not Active | IC50 [4]: Not Active | IC50 [5]: Not Active | IC50 [6]: Not Active

NCC(CC(=O)O)c1ccc(Cl)cc1 (configuration not stated) [BACLOFEN]
IC50 [1]: Not Active | IC50 [2]: Not Active | Ki [2]: Not Active | IC50 ([3]; sf9): Not Active | IC50 [4]: Not Active | IC50 [5]: Not Active | IC50 [6]: Not Active

O=C(Nc1ccc(Cl)c(Cl)c1)c1cc(Cl)cc(Cl)c1O [3,3',4',5-TETRACHLOROSALICYLANILIDE]
IC50 [1]: Not Active | IC50 [2]: Not Active | Ki [2]: Not Active | IC50 ([3]; sf9): Not Active | IC50 [4]: Not Active | IC50 [5]: Not Active | IC50 ([6]; read-out: IC50): 2180 nM

Oc1ccccc1 [PHENOL]
IC50 [1]: Not Active | IC50 [2]: Not Active | Ki [2]: Not Active | IC50 ([3]; sf9): Not Active | IC50 [4]: Not Active | IC50 [5]: Not Active | IC50 [6]: Not Active

CC(C)NCC(O)COc1ccc(CC(N)=O)cc1 (configuration not stated) [ATENOLOL]
IC50 [1]: Not Active | IC50 [2]: Not Active | Ki [2]: Not Active | IC50 ([3]; sf9): Not Active | IC50 [4]: Not Active | IC50 [5]: Not Active | IC50 [6]: Not Active

CNC[C@H](O)c1ccc(O)c(O)c1 [EPINEPHRINE]
IC50 [1]: Not Active | IC50 [2]: Not Active | Ki [2]: Not Active | IC50 [4]: Not Active | IC50 [6]: Not Active

CN(Cc1cc(Br)cc(Br)c1N)C1CCCCC1 [BROMHEXINE]
IC50 [1]: Not Active | IC50 [2]: Not Active | Ki [2]: Not Active | IC50 ([3]; sf9): Not Active | IC50 [4]: Not Active | IC50 [5]: Not Active | IC50 [6]: Not Active

CC(C)Cc1ccc([C@H](C)C(=O)O)cc1 [DEXIBUPROFEN]
IC50 [1]: Not Active | IC50 [2]: Not Active | Ki [2]: Not Active | IC50 ([3]; sf9): Not Active | IC50 [4]: Not Active | IC50 [5]: Not Active | IC50 [6]: Not Active

CC(C)Cn1cnc2c(N)nc3ccccc3c21 [IMIQUIMOD]
IC50 [1]: Not Active | IC50 [2]: Not Active | Ki [2]: Not Active | IC50 ([3]; sf9): Not Active | IC50 [4]: Not Active | IC50 [5]: Not Active | IC50 [6]: Not Active

CC(C)(C#N)c1cc(Cn2cncn2)cc(C(C)(C)C#N)c1 [ANASTROZOLE]
IC50 [1]: Not Active | IC50 [2]: Not Active | Ki [2]: Not Active | IC50 ([3]; sf9): Not Active | IC50 [4]: Not Active | IC50 [5]: Not Active | IC50 [6]: Not Active

POVIDONE
IC50 [1]: Not Active | Ki [1]: Not Active | IC50 [2]: Not Active | Ki [2]: Not Active | IC50 ([3]; sf9): Not Active | Ki ([3]; sf9): Not Active | IC50 [4]: Not Active | Ki [4]: Not Active | IC50 [5]: Not Active | Ki [5]: Not Active | IC50 [6]: Not Active | Ki [6]: Not Active

COc1ccccc1OCCNCC(O)COc1cccc2[nH]c3ccccc3c12 (configuration not stated) [CARVEDILOL]
IC50 [1]: Not Active | IC50 [2]: Not Active | Ki [2]: Not Active | IC50 ([3]; read-out: IC50): 90 nM | Ki ([3]; read-out: Ki): 13 nM | IC50 [4]: Not Active | IC50 [6]: Not Active

Nc1ccc(Cc2ccc(N)cc2)cc1
IC50 [1]: Not Active | IC50 [2]: Not Active | Ki [2]: Not Active | IC50 ([3]; sf9): Not Active | IC50 [4]: Not Active | IC50 [5]: Not Active | IC50 [6]: Not Active

CARBOXYMETHYLCELLULOSE
IC50 [1]: Not Active | Ki [1]: Not Active | IC50 [2]: Not Active | Ki [2]: Not Active | IC50 ([3]; sf9): Not Active | Ki ([3]; sf9): Not Active | IC50 [4]: Not Active | Ki [4]: Not Active | IC50 [5]: Not Active | Ki [5]: Not Active | IC50 [6]: Not Active | Ki [6]: Not Active

c1ccc2sc(SSc3nc4ccccc4s3)nc2c1 [BENZOTHIAZYL DISULFIDE]
IC50 [1]: Not Active | IC50 [2]: Not Active | Ki [2]: Not Active | IC50 ([3]; read-out: IC50): 1660 nM | Ki ([3]; read-out: Ki): 241 nM | IC50 [4]: Not Active | IC50 [5]: Not Active | IC50 [6]: Not Active

O=C1c2ccccc2C(=O)C1c1ccccc1 [PHENINDIONE]
IC50 [1]: Not Active | IC50 [2]: Not Active | Ki [2]: Not Active | IC50 ([3]; sf9): Not Active | IC50 [4]: Not Active | IC50 [5]: Not Active | IC50 [6]: Not Active

Nc1ccc(C(=O)O)c(O)c1 [AMINOSALICYLIC ACID]
IC50 [1]: Not Active | IC50 [2]: Not Active | Ki [2]: Not Active | IC50 ([3]; sf9): Not Active | IC50 [4]: Not Active | IC50 [5]: Not Active | IC50 [6]: Not Active

Cc1cc(C(C)(C)C)c(O)c(C)c1CC1=NCCN1 [OXYMETAZOLINE]
IC50 [1]: Not Active | IC50 [2]: Not Active | Ki [2]: Not Active | IC50 [4]: Not Active | IC50 [6]: Not Active
